Legend:
[1] = tested on: E. coli ATCC25922; experiment: MIC assay, serial dilution; details: for MIC: Escherichia coli, ATCC25922, read-out: Anti-bacterial Activity (E. coli MIC (uM)), E. coli, Table 5
[2] = tested on: Hennes-20 cells; experiment: Hennes-20 oncology screen; format: cell-based; details: 72 h, alamar Blue
Method: To screen compounds for oncology activity Hennes-20 cells were plated at low (500 cells/well) versus high (15,000 cells/well) densities and treated with DMSO (vehicle) or dose-titration of compounds. The rationale for this screen is that an intrinsically toxic compound should kill cells regardless of density, including in Hennes-20 cells. However, a compound that selectively triggers the arrest of proliferation will inhibit cell growth when plated at a low density will appear cytotoxic due to inhibition of cell growth when plated at a low density but will appear non-toxic to cells plated at a high density where the cells are approaching confluence and the readout detected by a cell viability assay is already close to the maximum.
To conduct the Hennes-20 screen, two 96 well plates were seeded with Hennes 20 cells in parallel where one was plated at a density of 500 cells/well and the other was plated at a density of 15,000 cells/well. 90 uL of minimum essential media was added to each well and plates were placed in a 37 degrees Celsius incubator for 24 hours. The next day, 10 ul of media containing dilutions of compound in DMSO were added to each plate. Six wells on each plate received 10 ul of media containing only DMSO. Each well was gently mixed 5 times with a 100 ul pipette. Plates were incubated at 37 degrees Celsius for 72 hours and then 10 uL of alamar Blue was added to each well. Wells were mixed 5 times then incubated at 37 degrees Celsius for […]. Plates were then read at 530/590.
The rationale for the screen is as follows: Hennes-20 cells lack endogenous apoptosis. Cells plated at low density will proliferate and approach confluence in 72 hrs. A drug that arrests proliferation may have its proliferation blocking effect masked by the triggering of endogenous apoptosis. However, in the Hennes line, lacking endogenous apoptosis, such an arrest is manifest as a dose-dependent maintenance at low cell density. Since the high-density cells are plated close to confluence, the difference between Alamar Blue cell survival readings after 72 hrs reflects the ability of the drug to block proliferation in the low density-plated cells. In the high density-plated cells any diminution of Alamar Blue readout vs vehicle control is due to intrinsic toxicity, not proliferation arrest, since cells were already at confluence. Thus, a compound that appears toxic (low Alamar Blue readings after 72 hrs) on the low-density plate, but which appears non-toxic (high Alamar Blue readings after 72 hrs) on the high-density plate, must be arresting proliferation, since intrinsic compound toxicity should be observed at both low and high cell densities, not selectively on the low-density plate.

## FC1(F)C2CN(c3ccc4nc5ccc(N6CC7C(C6)C7(F)F)cc5[s+]c4c3)CC21 (centres unmarked) [Compound 2]
[1]
  MIC: 1.6 µM

## c1cc2nc3ccc(N4CC5CC5C4)cc3[s+]c2cc1N1CC2CC2C1 (centres unmarked) [Compound 3]
[1]
  MIC: 1.6 µM

## CC1(C)C2CN(c3ccc4nc5c(N6CCCC6)cc(N6CC7C(C6)C7(C)C)cc5[s+]c4c3)CC21 (centres unmarked) [Compound 4]
[2]
  EC50: 0.5 µM
[1]
  MIC: 3.1 µM

## CC1(C)C2CN(c3ccc4nc5c(F)cc(N6CC7C(C6)C7(C)C)cc5[s+]c4c3)CC21 (centres unmarked) [Compound 5]
[2]
  EC50: < 0.1 µM
[1]
  MIC: 6.25 µM

## CC1(C)C2CN(c3ccc4nc5c(N6CC7C(C6)C7(C)C)cc(N6CC7C(C6)C7(C)C)cc5[s+]c4c3)CC21 (centres unmarked) [Compound 6]
[2]
  EC50: 0.5 µM
[1]
  MIC: 6.3 µM

## CC1(C)C2CN(c3ccc4nc5cc(CN)c(N6CC7C(C6)C7(C)C)cc5[s+]c4c3)CC21 (centres unmarked) [Compound 7]
[1]
  MIC: 6.3 µM

## CC(C)(C)OC(=O)NCc1cc2nc3ccc(N4CC5C(C4)C5(C)C)cc3[s+]c2cc1N1CC2C(C1)C2(C)C (centres unmarked) [Compound 8]
[2]
  EC50: < 2.5 µM
[1]
  MIC: 6.3 µM

## CC1(C)C2CN(c3ccc4nc5cc(Cl)c(N6CC7C(C6)C7(C)C)cc5[s+]c4c3)CC21 (centres unmarked) [Compound 9]
[2]
  EC50: 0.5 µM
[1]
  MIC: 12.5 µM

## CCc1cc(N2CC3C(C2)C3(C)C)cc2[s+]c3cc(N4CC5C(C4)C5(C)C)cc(CC)c3nc12 (centres unmarked) [Compound 10]
[2]
  EC50: < 0.5 µM
[1]
  MIC: 6.25 µM

## Cc1cc(N2CC3C(C2)C3(C)C)cc2[s+]c3cc(N4CC5C(C4)C5(C)C)cc(C)c3nc12 (centres unmarked) [Compound 11]
[2]
  EC50: < 0.5 µM
[1]
  MIC: 6.25 µM

## CCc1cc(N2CC3C(C2)C3(C)C)cc2[s+]c3cc(N4CC5C(C4)C5(C)C)cc(C)c3nc12 (centres unmarked) [Compound 12]
[2]
  EC50: < 0.5 µM
[1]
  MIC: 6.25 µM

## CC1(C)C2CN(c3cc(F)c4nc5c(F)cc(N6CC7C(C6)C7(C)C)cc5[s+]c4c3)CC21 (centres unmarked) [Compound 13]
[2]
  EC50: 2.5 µM
[1]
  MIC: 12.5 µM

## Cc1cc(N2CC3C(C2)C3(C)C)cc2[s+]c3c(F)c(N4CC5C(C4)C5(C)C)cc(C)c3nc12 (centres unmarked) [Compound 14]
[2]
  EC50: < 0.5 µM
[1]
  MIC: 6.25 µM

## CC1(C)C2CN(c3ccc4nc5c(Cl)cc(N6CC7C(C6)C7(C)C)cc5[s+]c4c3)CC21 (centres unmarked) [Compound 15]
[2]
  EC50: 2.5 µM
[1]
  MIC: 12.5 µM

## c1cc2nc3ccc(N4CCC5(CCC5)C4)cc3[s+]c2cc1N1CCC2(CCC2)C1 [Compound 17]
[1]
  MIC: 3.1 µM

## c1ccc2c(c1)Sc1ccccc1N2c1ccc2nc3c(N4CCCC4)cc(N4CCCC4)cc3[s+]c2c1 [Compound 19]
[1]
  MIC: 12.5 µM

## c1cc2nc3c(N4CCCC4)cc(N4CCCC4)cc3[s+]c2cc1N1CCCC1 [Compound 20]
[2]
  EC50: 0.5 µM
[1]
  MIC: 0.8 µM

## Cc1cc(N2CCCC2)cc2[s+]c3c(F)c(N4CCCC4)cc(C)c3nc12 [Compound 21]
[2]
  EC50: < 0.5 µM
[1]
  MIC: 1.6 µM

## c1cc2nc3ccc(N4CCCCCC4)cc3[s+]c2cc1N1CCCCCC1 [Compound 22]
[2]
  EC50: < 0.5 µM
[1]
  MIC: 1.6 µM

## CC1(C)C2CN(c3cc(N4CCCC4)cc4[s+]c5cc(N6CCCC6)ccc5nc34)CC21 (centres unmarked) [Compound 23]
[2]
  EC50: < 0.5 µM
[1]
  MIC: 1.6 µM

## CC(C)(C)OC(=O)NCc1cc2nc3ccc(N4CCCC4)cc3[s+]c2cc1N1CCCC1 [Compound 24]
[2]
  EC50: < 2.5 µM
[1]
  MIC: 1.6 µM

## NCc1cc2nc3ccc(N4CCCC4)cc3[s+]c2cc1N1CCCC1 [Compound 27]
[1]
  MIC: 12.5 µM

## CC1(C)CCCN1c1ccc2nc3ccc(N4CCCCCC4)cc3[s+]c2c1 [Compound 28]
[1]
  MIC: 12.5 µM

## c1cc2nc3ccc(N4CCC4)cc3[s+]c2cc1N1CCC1 [Compound 29]
[2]
  EC50: < 2.5 µM
[1]
  MIC: 25 µM

## CC1(C)C2CN(c3ccc4nc5ccc(N6CCCCCC6)cc5[s+]c4c3)CC21 (centres unmarked) [Compound 30, 3-[6,6-dimethyl-3-azabicyclo[3.1.0]hexan-N-yl]-7-(azepan-1-yl) phenothiazinium iodide]
[1]
  MIC: 0.8 µM

## CN(C)c1ccc2nc3ccc(N4CC5C(C4)C5(C)C)cc3[s+]c2c1 (centres unmarked) [Compound 31]
[2]
  EC50: < 2.5 µM
[1]
  MIC: 1.6 µM

## CC(C)(C)OC(=O)NC1CCN(c2ccc3nc4ccc(N5CC6C(C5)C6(C)C)cc4[s+]c3c2)C1 (centres unmarked) [Compound 32]
[1]
  MIC: 6.25 µM

## Cc1cc(N(C)C)cc2[s+]c3cc(N4CCCC4)cc(C)c3nc12 [Compound 33]
[1]
  MIC: 1.6 µM

## CN(C)c1ccc2nc3ccc(N4CCCC4)cc3[s+]c2c1 [Compound 35]
[2]
  EC50: 0.5 µM
[1]
  MIC: 12.5 µM

## CCc1cccc2[s+]c3cc(N4CCCC4)ccc3nc12 [Compound 37]
[1]
  MIC: 6.3 µM

## c1cc(N2CCCC2)c2nc3ccc(N4CCCC4)cc3[s+]c2c1 [Compound 38]
[2]
  EC50: 2.5 µM
[1]
  MIC: 6.3 µM

## CCc1cc(N2CCCC2)cc2[s+]c3cc(N4CCCC4)cc(CC)c3nc12 [Compound 39]
[1]
  MIC: 3.1 µM

## Cc1cc(N2CCCC2)cc2[s+]c3cc(N4CCCC4)cc(C)c3nc12 [Compound 40]
[1]
  MIC: 1.6 µM

## CC(C)c1cc(N2CCCC2)cc2[s+]c3cc(N4CCCC4)ccc3nc12 [Compound 41]
[2]
  EC50: < 0.5 µM
[1]
  MIC: 1.6 µM

## Clc1cc(N2CCCC2)cc2[s+]c3cc(N4CCCC4)cc(Cl)c3nc12 [Compound 42]
[2]
  EC50: < 12.5 µM
[1]
  MIC: 1.6 µM

## Fc1cc(N2CCCC2)cc2[s+]c3cc(N4CCCC4)ccc3nc12 [Compound 43]
[2]
  EC50: 0.5 µM
[1]
  MIC: 3.1 µM

## Fc1cc(N2CCCC2)cc2[s+]c3cc(N4CCCC4)cc(F)c3nc12 [Compound 44]
[1]
  MIC: 6.3 µM

## c1ccc(C2CCN(c3ccc4nc5ccc(N6CCC(c7ccccc7)C6)cc5[s+]c4c3)C2)cc1 (centres unmarked) [Compound 47]
[1]
  MIC: 3.1 µM

## FC(F)(F)C1CCCN1c1ccc2nc3ccc(N4CCCC4C(F)(F)F)cc3[s+]c2c1 (centres unmarked) [Compound 48]
[1]
  MIC: 3.1 µM

## CC(C)(C)OC(=O)NCC1CCCN1c1ccc2nc3ccc(N4CCCC4CNC(=O)OC(C)(C)C)cc3[s+]c2c1 (centres unmarked) [Compound 49]
[2]
  EC50: < 2.5 µM
[1]
  MIC: 1.6 µM

## CC(C)(C)OC(=O)NC1CCN(c2ccc3nc4ccc(N5CCC(NC(=O)OC(C)(C)C)C5)cc4[s+]c3c2)C1 (centres unmarked) [Compound 51]
[1]
  MIC: 6.3 µM

## CC1(C)CCCN1c1ccc2nc3ccc(N4CCCC4(C)C)cc3[s+]c2c1 [Compound 52]
[1]
  MIC: 12.5 µM

## FC1CCN(c2ccc3nc4ccc(N5CCC(F)C5)cc4[s+]c3c2)C1 (centres unmarked) [Compound 54]
[1]
  MIC: 25 µM

## CCc1cc(C(C)C)cc2[s+]c3cc(N(C)C)cc(CC)c3nc12 [Compound 60]
[2]
  EC50: < 2.5 µM

## CC1C=CC(C)N1c1ccc2nc3ccc(N4C(C)C=CC4C)cc3[s+]c2c1 (centres unmarked) [Compound 61]
[1]
  MIC: 25 µM

## CCN(CC)c1cc(Br)c2nc3c(C(C)(C)C)cc(N(CC)CC)cc3[s+]c2c1 [Compound 63]
[2]
  EC50: 2.5 µM

## CCc1cc(N2CCCC2)cc2[s+]c3cc(N4CCCC4)cc(C(C)C)c3nc12 [Compound 64]
[1]; E. coli, Table 5
  Anti-bacterial Activity (E. coli MIC (uM)): 6.3 µM

## COCCN(CCOC)c1ccc2nc3c(C(C)(C)C)cc(N(CCOC)CCOC)cc3[s+]c2c1 [Compound 67]
[2]
  EC50: < 0.5 µM

## CCCCc1cc(N2CCCC2)cc2[s+]c3cc(N4CCCC4)ccc3nc12 [Compound 70]
[2]
  EC50: < 2.5 µM

## FC(F)(F)c1cc(N2CCCC2)cc2[s+]c3cc(N4CCCC4)ccc3nc12 [Compound 71]
[2]
  EC50: < 2.5 µM

## FC(F)(F)c1cc(N2CCCC2)cc2[s+]c3cc(N4CCCC4)cc(N4CCCC4)c3nc12 [Compound 75]
[2]
  EC50: < 2.5 µM

## COc1cc2nc3c(N4CCCC4)cc(N4CCCC4)cc3[s+]c2cc1N1CCCC1 [Compound 76]
[2]
  EC50: < 2.5 µM

## N#Cc1cc(N2CCCC2)cc2[s+]c3cc(N4CCCC4)cc(N4CCCC4)c3nc12 [Compound 78]
[2]
  EC50: < 2.5 µM

## Cc1cc(N2CCCC2)cc2[s+]c3cc(N4CCCC4)ccc3nc12 [Compound 79]
[2]
  EC50: < 12.5 µM

## CCc1cc(N2CCCNCC2)cc2[s+]c3cc(N4CCCC4C)cc(CC)c3nc12 (centres unmarked) [Compound 81]
[2]
  EC50: < 2.5 µM

## COc1cc2nc3ccc(N4CCCC4)cc3[s+]c2cc1N1CCCC1 [Compound 84]
[2]
  EC50: < 12.5 µM

## CN1CCN(c2ccc3nc4c(C(C)(C)C)cc(N5CCN(C)CC5)cc4[s+]c3c2)CC1 [Compound 85]
[2]
  EC50: 12.5 µM

## Clc1cc(N2CCCC2)cc2[s+]c3cc(N4CCCC4)ccc3nc12 [Compound 86]
[2]
  EC50: < 0.5 µM

## CC(C)(C)c1cc(N2CCOCC2)cc2[s+]c3cc(N4CCOCC4)ccc3nc12 [Compound 88]
[2]
  EC50: 12.5 µM

## CC(C)(C)c1cc(N2CCCC2)cc2[s+]c3cc(N4CCC(C(=N)N)CC4)ccc3nc12 [Compound 89]
[2]
  EC50: 12.5 µM

## CC(C)(C)c1cc(N2CCC(C(=N)N)CC2)cc2[s+]c3cc(N4CCC(C(=N)N)CC4)ccc3nc12 [Compound 90]
[2]
  EC50: 12.5 µM

## CC(C)(C)c1cc(N2CCC(C(=N)N)CC2)cc2[s+]c3cc(N4CCCC4)ccc3nc12 [Compound 91]
[2]
  EC50: > 12.5 µM
